Reference: US20060167048A1, “N-4-piperidinyl compounds as ccr5 modulators” (priority 2002, published 2006)

How the values were obtained:
[1] = biological target: recombinant human CCR5 receptor (Homo sapiens, UniProt P51681); experiment: in vitro radioligand binding assay, inhibition of binding of iodinated RANTES or MIP-1α (scintillation proximity); conditions: membranes from Chinese hamster ovary cells expressing recombinant human CCR5; 0.1 nM iodinated RANTES or MIP-1α; read-out: IC50 (concentration of compound which displaced 50% of bound iodinated RANTES or MIP-1α)
Chain of recombinant human CCR5 receptor (P51681 whole entry): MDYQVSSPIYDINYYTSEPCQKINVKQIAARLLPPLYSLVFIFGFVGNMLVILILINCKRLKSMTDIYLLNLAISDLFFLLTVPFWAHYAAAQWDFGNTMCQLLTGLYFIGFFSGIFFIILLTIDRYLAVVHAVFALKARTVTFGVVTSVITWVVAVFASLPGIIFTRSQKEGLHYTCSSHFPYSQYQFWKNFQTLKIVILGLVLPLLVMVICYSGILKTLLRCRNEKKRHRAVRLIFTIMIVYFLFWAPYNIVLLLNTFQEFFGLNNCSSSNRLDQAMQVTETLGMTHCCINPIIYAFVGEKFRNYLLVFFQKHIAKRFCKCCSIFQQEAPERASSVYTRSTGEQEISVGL
Procedure: The ability of compounds to inhibit the binding of RANTES or MIP-1α was assessed by an in vitro radioligand binding assay. Membranes were prepared from Chinese hamster ovary cells which expressed the recombinant human CCR5 receptor. These membranes were incubated with 0.1 nM iodinated RANTES or MP-1α, scintillation proximity beads and various concentrations of the compounds of the invention in 96-well plates. The amount of iodinated RANTES or MIP-1α bound to the receptor was determined by scintillation counting. Competition curves were obtained for compounds and the concentration of compound which displaced 50% of bound iodinated RANTES or MIP-1α was calculated (IC50).

IC50 [1] [nM]	melting point [°C]	Compound
39		CCN(C(=O)Cc1ccc(S(C)(=O)=O)cc1)C1CCN(CC[C@H](NC(=O)C2CCN(C(C)=O)CC2)c2ccccc2)CC1 [Compound 1 of Table I, (S)-1-acetyl-piperidine-4-carboxylic acid [3-(4-{ethyl-[2-(4-methanesulfonyl-phenyl)-acetyl]-amino}-piperidin-1-yl)-1-phenyl-propyl]-amide]
	115 to 116	CCN(C(=O)Cc1ccc(S(C)(=O)=O)cc1)C1CCN(CC[C@H](NC(=O)OC(C)(C)C)c2ccccc2)CC1 [Compound 1 of Table II, (S)-[3-(4-{ethyl-[2-(4-methanesulfonyl-phenyl)-acetyl]-amino}-piperidin-1-yl)-1-phenyl-propyl]-carbamic acid tert-butyl ester]
110		CCN(C(=O)Cc1ccc(S(C)(=O)=O)cc1)C1CCN(CC[C@H](NC(=O)OCCOC)c2ccccc2)CC1 [Compound 3 of Table II]
28		CCN(C(=O)Cc1ccc(S(C)(=O)=O)cc1)C1CCN(CC[C@H](NC(=O)C2CCN(S(C)(=O)=O)CC2)c2ccccc2)CC1 [Compound 5 of Table I]
